In the OligoGym collection one finds normalised inhibition (eCFP-eYFP dual reporter) data, which are given here for 49 substances.

Oligonucleotides are written 5' to 3', each unit as a sugar letter and its base; * is a phosphorothioate linkage, no mark a phosphodiester; rarer units and linkages stand in square brackets, end groups in braces. Plain capitals give the bases only. d = 2'-deoxy (DNA); r = 2'-OH (RNA)
Note: test concentration or dose not given here.

The target in one data set is UBE2L6. Kind of data set: reporter assay of Huesken 2005. Particulars: siRNA. Background: In a reporter assay the amount or activity of a reporter protein is the signal.
“sense rArArArGrCrCrUrUrCrArArCrCrUrGrCrGrCrAdTdT / antisense rUrGrCrGrCrArGrGrUrUrGrArArGrGrCrUrUrUdCdA”: the normalised inhibition (eCFP-eYFP dual reporter) amounted to 69.8%.

For the substance “sense rArArCrCrArArGrArUrCrUrArCrCrArCrCrCrCdTdT / antisense rGrGrGrGrUrGrGrUrArGrArUrCrUrUrGrGrUrUdGdT”, the normalised inhibition (eCFP-eYFP dual reporter) was found to be 43.6%.

In the case of “sense rArArCrCrUrGrCrGrCrArUrCrArGrCrUrUrCrCdTdT / antisense rGrGrArArGrCrUrGrArUrGrCrGrCrArGrGrUrUdGdA”, the normalised inhibition (eCFP-eYFP dual reporter) came to 51.6%.

As for “sense rArArCrUrGrGrArArGrCrCrUrUrGrCrArCrCrAdTdT / antisense rUrGrGrUrGrCrArArGrGrCrUrUrCrCrArGrUrUdCdT”, the normalised inhibition (eCFP-eYFP dual reporter) came to 77.8%.

With “sense rArArUrGrCrCrGrArArGrArGrUrUrCrArCrCrCdTdT / antisense rGrGrGrUrGrArArCrUrCrUrUrCrGrGrCrArUrUdCdT”, the normalised inhibition (eCFP-eYFP dual reporter) was found to be 51.6%.

As to “sense rArCrArCrArGrArArUrCrCrGrGrArGrCrUrGrUdTdT / antisense rArCrArGrCrUrCrCrGrGrArUrUrCrUrGrUrGrUdCdA”, the normalised inhibition (eCFP-eYFP dual reporter) worked out at 85.4%.

For the substance “sense rArCrCrArArGrArUrCrUrArCrCrArCrCrCrCrAdTdT / antisense rUrGrGrGrGrUrGrGrUrArGrArUrCrUrUrGrGrUdTdG”, the normalised inhibition (eCFP-eYFP dual reporter) came out at 90.8%.

In the case of “sense rArCrCrArCrCrCrCrArArCrGrUrGrGrArCrGrAdTdT / antisense rUrCrGrUrCrCrArCrGrUrUrGrGrGrGrUrGrGrUdAdG”, the normalised inhibition (eCFP-eYFP dual reporter) turned out to be 64.9%.

Turning to “sense rArCrCrCrGrArCrCrArArCrCrUrCrCrCrUrArCdTdT / antisense rGrUrArGrGrGrArGrGrUrUrGrGrUrCrGrGrGrUdAdG”, the normalised inhibition (eCFP-eYFP dual reporter) is 64%.

With “sense rArCrCrUrCrGrCrUrGrArCrCrUrGrCrUrGrArCdTdT / antisense rGrUrCrArGrCrArGrGrUrCrArGrCrGrArGrGrUdCdC”, the normalised inhibition (eCFP-eYFP dual reporter) turned out to be 58.6%.

“sense rArCrCrUrGrCrGrCrArUrCrArGrCrUrUrCrCrCdTdT / antisense rGrGrGrArArGrCrUrGrArUrGrCrGrCrArGrGrUdTdG”: the normalised inhibition (eCFP-eYFP dual reporter) is 70.9%.

Turning to “sense rArCrCrUrGrCrGrGrArArCrCrUrGrUrCrCrArGdTdT / antisense rCrUrGrGrArCrArGrGrUrUrCrCrGrCrArGrGrUdAdT”, the normalised inhibition (eCFP-eYFP dual reporter) was found to be 73.8%.

In the case of “sense rArCrUrUrGrCrCrArArGrUrCrCrUrGrGrArGrGdTdT / antisense rCrCrUrCrCrArGrGrArCrUrUrGrGrCrArArGrUdCdT”, the normalised inhibition (eCFP-eYFP dual reporter) is 31.8%.

Turning to “sense rArGrCrGrArUrGrArUrGrCrCrArArUrGrUrCrCdTdT / antisense rGrGrArCrArUrUrGrGrCrArUrCrArUrCrGrCrUdGdG”, the normalised inhibition (eCFP-eYFP dual reporter) worked out at 87.3%.

Take “sense rArGrGrGrArGrCrCrCrCrUrGrCrGrGrArUrGrGdTdT / antisense rCrCrArUrCrCrGrCrArGrGrGrGrCrUrCrCrCrUdGdA”: the normalised inhibition (eCFP-eYFP dual reporter) is 60.1%.

Take “sense rArGrUrArUrCrCrGrUrUrCrArArGrCrCrUrCrCdTdT / antisense rGrGrArGrGrCrUrUrGrArArCrGrGrArUrArCrUdCdC”: the normalised inhibition (eCFP-eYFP dual reporter) came out at 53.7%.

For “sense rArGrUrUrCrArCrCrCrUrCrCrGrArUrUrCrGrGdTdT / antisense rCrCrGrArArUrCrGrGrArGrGrGrUrGrArArCrUdCdT”, the normalised inhibition (eCFP-eYFP dual reporter) came to 55.3%.

For “sense rArUrCrArGrCrArGrUrGrArGrArArCrUrGrGrAdTdT / antisense rUrCrCrArGrUrUrCrUrCrArCrUrGrCrUrGrArUdGdA”, the normalised inhibition (eCFP-eYFP dual reporter) is 82.9%.

Take “sense rArUrCrArGrCrUrUrCrCrCrGrCrCrGrGrArGrUdTdT / antisense rArCrUrCrCrGrGrCrGrGrGrArArGrCrUrGrArUdGdC”: the normalised inhibition (eCFP-eYFP dual reporter) came to 52.3%.

In the case of “sense rArUrGrGrArCrCrUrCrGrCrUrGrArCrCrUrGrCdTdT / antisense rGrCrArGrGrUrCrArGrCrGrArGrGrUrCrCrArUdCdC”, the normalised inhibition (eCFP-eYFP dual reporter) is 43.8%.

For the substance “sense rArUrUrCrArCrArArCrCrArArGrArUrCrUrArCdTdT / antisense rGrUrArGrArUrCrUrUrGrGrUrUrGrUrGrArArUdTdT”, the normalised inhibition (eCFP-eYFP dual reporter) came to 51%.

Consider “sense rCrArArArUrUrCrArCrArArCrCrArArGrArUrCdTdT / antisense rGrArUrCrUrUrGrGrUrUrGrUrGrArArUrUrUrGdAdT”, for which the normalised inhibition (eCFP-eYFP dual reporter) came out at 85.9%.

Consider “sense rCrArCrArArCrCrArArGrArUrCrUrArCrCrArCdTdT / antisense rGrUrGrGrUrArGrArUrCrUrUrGrGrUrUrGrUrGdAdA”, for which the normalised inhibition (eCFP-eYFP dual reporter) was 45.8%.

For the substance “sense rCrArCrArGrArArUrCrCrGrGrArGrCrUrGrUrUdTdT / antisense rArArCrArGrCrUrCrCrGrGrArUrUrCrUrGrUrGdTdC”, the normalised inhibition (eCFP-eYFP dual reporter) turned out to be 97.8%.

Turning to “sense rCrArGrCrArGrUrGrArGrArArCrUrGrGrArArGdTdT / antisense rCrUrUrCrCrArGrUrUrCrUrCrArCrUrGrCrUrGdAdT”, the normalised inhibition (eCFP-eYFP dual reporter) was found to be 74.9%.

Molecular target in another data set: not listed separately
The data set is described as follows: reporter assay of Huesken 2005. Particulars: siRNA.
For the substance “sense rGrGrCrUrUrUrGrGrArGrCrCrCrUrUrCrUrGrCdTdT / antisense rGrCrArGrArArGrGrGrCrUrCrCrArArArGrCrCdTdA”, the normalised inhibition (eCFP-eYFP dual reporter) is 73.7%.

In the case of “sense rGrGrUrGrGrCrUrCrUrGrUrCrUrCrUrCrUrGrCdTdT / antisense rGrCrArGrArGrArGrArCrArGrArGrCrCrArCrCdGdG”, the normalised inhibition (eCFP-eYFP dual reporter) was 71.5%.

On to “sense rGrUrCrCrCrUrGrArGrGrArGrCrCrCrUrUrArGdTdT / antisense rCrUrArArGrGrGrCrUrCrCrUrCrArGrGrGrArCdGdG”, for which the normalised inhibition (eCFP-eYFP dual reporter) was 85.8%.

Turning to “sense rGrUrCrGrUrUrCrGrUrGrGrUrCrGrUrUrUrCrAdTdT / antisense rUrGrArArArCrGrArCrCrArCrGrArArCrGrArCdCdA”, the normalised inhibition (eCFP-eYFP dual reporter) was 39.3%.

As to “sense rUrArCrUrCrUrUrGrCrUrCrUrCrUrGrGrArGrUdTdT / antisense rArCrUrCrCrArGrArGrArGrCrArArGrArGrUrAdGdA”, the normalised inhibition (eCFP-eYFP dual reporter) came to 57.9%.

Regarding “sense rUrArGrGrCrUrUrGrArGrGrGrArGrArGrUrUrGdTdT / antisense rCrArArCrUrCrUrCrCrCrUrCrArArGrCrCrUrAdAdA”, the normalised inhibition (eCFP-eYFP dual reporter) was 76.7%.

Regarding “sense rUrCrArUrUrGrUrUrCrCrUrGrUrGrArArCrUrGdTdT / antisense rCrArGrUrUrCrArCrArGrGrArArCrArArUrGrAdAdA”, the normalised inhibition (eCFP-eYFP dual reporter) was determined as 66.7%.

Regarding “sense rUrCrCrCrCrArUrArGrGrCrUrUrUrGrGrArGrCdTdT / antisense rGrCrUrCrCrArArArGrCrCrUrArUrGrGrGrGrAdTdA”, the normalised inhibition (eCFP-eYFP dual reporter) was found to be 35.8%.

As for “sense rUrCrCrCrCrUrGrCrCrUrGrUrCrArGrGrGrGrUdTdT / antisense rArCrCrCrCrUrGrArCrArGrGrCrArGrGrGrGrAdAdA”, the normalised inhibition (eCFP-eYFP dual reporter) turned out to be 42.2%.

“sense rUrCrCrCrUrGrCrUrUrCrUrGrArGrArCrUrUrCdTdT / antisense rGrArArGrUrCrUrCrArGrArArGrCrArGrGrGrAdAdG”: the normalised inhibition (eCFP-eYFP dual reporter) came out at 67.9%.

As for “sense rUrGrArArGrCrUrGrGrUrCrUrGrUrGrGrCrArGdTdT / antisense rCrUrGrCrCrArCrArGrArCrCrArGrCrUrUrCrAdGdA”, the normalised inhibition (eCFP-eYFP dual reporter) was found to be 44.4%.

As for “sense rUrGrArGrArCrUrUrCrCrArUrCrUrCrUrArGrCdTdT / antisense rGrCrUrArGrArGrArUrGrGrArArGrUrCrUrCrAdGdA”, the normalised inhibition (eCFP-eYFP dual reporter) turned out to be 32.9%.

“sense rUrGrCrCrCrArUrUrGrUrGrUrUrCrCrCrUrUrGdTdT / antisense rCrArArGrGrGrArArCrArCrArArUrGrGrGrCrAdGdG”: the normalised inhibition (eCFP-eYFP dual reporter) is 95.4%.

With “sense rUrGrCrCrUrCrCrCrUrUrGrArGrGrCrGrUrCrUdTdT / antisense rArGrArCrGrCrCrUrCrArArGrGrGrArGrGrCrAdAdT”, the normalised inhibition (eCFP-eYFP dual reporter) was determined as 34.1%.

For the substance “sense rUrGrGrArUrUrUrArGrGrCrUrUrGrArGrGrGrAdTdT / antisense rUrCrCrCrUrCrArArGrCrCrUrArArArUrCrCrAdGdA”, the normalised inhibition (eCFP-eYFP dual reporter) is 81.4%.

As to “sense rUrGrGrCrUrCrUrGrUrCrUrCrUrCrUrGrCrCrAdTdT / antisense rUrGrGrCrArGrArGrArGrArCrArGrArGrCrCrAdCdC”, the normalised inhibition (eCFP-eYFP dual reporter) came out at 76.5%.

“sense rUrGrUrGrArCrCrUrCrCrArUrCrUrArCrUrCrUdTdT / antisense rArGrArGrUrArGrArUrGrGrArGrGrUrCrArCrAdGdG”: the normalised inhibition (eCFP-eYFP dual reporter) is 96.8%.

For the substance “sense rUrGrUrGrGrArCrUrCrUrGrArGrArArGrArArAdTdT / antisense rUrUrUrCrUrUrCrUrCrArGrArGrUrCrCrArCrAdAdG”, the normalised inhibition (eCFP-eYFP dual reporter) was determined as 85.5%.

Take “sense rUrGrUrGrUrGrCrUrUrCrCrUrCrUrCrCrCrArUdTdT / antisense rArUrGrGrGrArGrArGrGrArArGrCrArCrArCrAdGdT”: the normalised inhibition (eCFP-eYFP dual reporter) was found to be 104%.

Regarding “sense rUrGrUrUrCrCrUrUrGrUrGrGrArCrUrCrUrGrAdTdT / antisense rUrCrArGrArGrUrCrCrArCrArArGrGrArArCrAdTdC”, the normalised inhibition (eCFP-eYFP dual reporter) was determined as 94.3%.

For “sense rUrUrGrCrCrUrCrCrCrUrUrGrArGrGrCrGrUrCdTdT / antisense rGrArCrGrCrCrUrCrArArGrGrGrArGrGrCrArAdTdC”, the normalised inhibition (eCFP-eYFP dual reporter) was 37.3%.

With “sense rUrUrGrCrUrCrUrCrUrGrGrArGrUrCrUrCrCrCdTdT / antisense rGrGrGrArGrArCrUrCrCrArGrArGrArGrCrArAdGdA”, the normalised inhibition (eCFP-eYFP dual reporter) was found to be 58.4%.

As for “sense rUrUrUrArGrGrGrUrGrCrCrCrArCrUrUrArGrGdTdT / antisense rCrCrUrArArGrUrGrGrGrCrArCrCrCrUrArArAdAdG”, the normalised inhibition (eCFP-eYFP dual reporter) was determined as 48.8%.

Regarding “sense rUrUrUrGrCrArGrUrUrGrGrArGrArUrUrCrArGdTdT / antisense rCrUrGrArArUrCrUrCrCrArArCrUrGrCrArArAdCdG”, the normalised inhibition (eCFP-eYFP dual reporter) was 48.6%.
